Legend:
[1] = tested on: mortality caused by strychnine; assay: Mortality caused by sub-cutaneous injection of strychnine (myorelaxant); format: in vivo; details: mouse, 100 mg/kg/p.o.
Method: The derivatives of formula I, preventively administered by oral means to the mouse, reduce the mortality caused by the sub-cutaneous injection of strychnine.
Thus, the derivative of Code No. 72608, administered in a dose of 100 mg/kg/p.o., permits a 50 % protection against the lethality of strychnine.

[2] = tested on: bronchoconstriction provoked by acetylcholine; assay: Bronchoconstriction provoked by intravenous acetylcholine, Konzett method; format: in vivo; details: guinea-pig, intraperitoneal injection of 100mg/kg
Method: Injected by intraduodenal means, the derivatives of formula I are capable of opposing the bronchoconstriction provoked in the guinea - pig by the intraveinous injection of acetylcholine and evaluated by the Konzett method.
By way of example, the following Table VI lists the percentage inhibition of the bronchoconstriction following the intraperitoneal injection of 100mg/kg of different derivatives of formula I.

[3] = Lethal doses / percentage mortality; format: in vivo; details: in vivo, mouse
Source text: As a result of a comparison between the pharmacologically active doses mentioned above, and the lethal doses listed in the following table XIV, the difference between the doses is sufficiently great to permit the utilisation of the derivatives of formula I in therapeutics.

[4] = tested on: painful stretchings caused by phenylbenzoquinone; assay: Analgesic test with phenylbenzoquinone (painful stretchings); format: in vivo; details: Mus musculus, po, read-out: Percentage of diminution of the number of painful stretchings
Shay ulcers = assay: Gastric ulcers provoked by tying of the pylorus (Shay ulcers); format: in vivo; details: intraduodenal; rat, 50mg/kg/i.d.; read-out: Percentage reduction of shay ulcers
Method: The derivatives of formula I, administered by oral means, reduce the extent of gastric ulcers provoked in a rat by tying of the pylorus (Shay ulcers)
Table IV indicated, by way of example, the results obtained by the administration of 50mg/kg/i.d. of different derivatives of formula I.

[5] = tested on: isolated duodenum of the rat; assay: Contractural action of barium chloride in isolated duodenum (spasmolytic); details: papaverine as standard
Method: The derivatives of formula I introduced in the conserving medium, are capable of opposing the contractural action of barium chloride in the isolated duodenum of the rat. This activity is evaluated taking papaverine as standard.

**Q.** For `Cc1cc(Nc2ccccc2C(N)=O)nc(-c2ccc3c(c2)OCO3)n1` [72 608], which “protection against the lethality of strychnine” value [1] is on record?
**A.** Its value is 50%.

**Q.** What about the “Percentage inhibition of bronchoconstriction” value [2] of the same compound?
**A.** The value was 65%.

**Q.** And the mortality ([3]; 1 600 mg/kg/PO)?
**A.** The mortality was about 50%.

**Q.** What about the inhibition in vivo at 100 mg/kg [4] of the same compound?
**A.** The inhibition in vivo at 100 mg/kg was 55%.

**Q.** Which results are given for `CCCN(CCC)CCOc1ccc(Nc2cc(C)nc(-c3ccccc3)n2)cc1` [730 282]?
**A.** mortality ([3]; 1000 mg/kg, 1 000 mg/kg/PO): ~50%; inhibition in vivo at 50 mg/kg (Shay ulcers): 50%; inhibition in vivo at 100 mg/kg [4]: 73%; spasmolytic activity relative to papaverine [5]: double to that of papaverine

Source: patent publication US3978055A, “Arylamino pyrimidinic derivatives” (priority 1973, dated 1976)
